ChEMBL document CHEMBL1201862, “PubChem BioAssay data set” (2004)
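Each compound was tested at five concentrations against cells in 96-well plates for 48 hours. GI50 = concentration required for 50% inhibition of growth.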 Active and inactive are the calls of the source. Rule as the data show it: active = GI50 up to about 1.1 µM and inactive = higher.

Assays:
Test in all cases: NCI tumour cell line growth inhibition, 48 h
RXF 393 = tested on: RXF 393
CAKI-1 = tested on: CAKI-1
SK-MEL-2 = tested on: SK-MEL-2
U-251 = tested on: U-251
SW-620 = tested on: SW-620
SN12C = tested on: SN12C
OVCAR-8 = tested on: OVCAR-8
A549 = tested on: A549
MOLT-4 = tested on: MOLT-4
EKVX = tested on: EKVX
HCT-116 = tested on: HCT-116
NCI-H23 = tested on: NCI-H23
A498 = tested on: A498
HCT-15 = tested on: HCT-15
786-0 = tested on: 786-0
SR = tested on: SR
UACC-257 = tested on: UACC-257
SNB-75 = tested on: SNB-75
SK-MEL-28 = tested on: SK-MEL-28
M14 = tested on: M14
SK-MEL-5 = tested on: SK-MEL-5
NCI-H522 = tested on: NCI-H522
OVCAR-5 = tested on: OVCAR-5
NCI-H226 = tested on: NCI-H226
SNB-19 = tested on: SNB-19
SF-539 = tested on: SF-539
CCRF-CEM = tested on: CCRF-CEM
T47D = tested on: T47D
HOP-92 = tested on: HOP-92
Hs-578T = tested on: Hs-578T
HT-29 = tested on: HT-29
BT-549 = tested on: BT-549
K562 = tested on: K562
UO-31 = tested on: UO-31
UACC-62 = tested on: UACC-62
HOP-62 = tested on: HOP-62
OVCAR-4 = tested on: OVCAR-4
SF-268 = tested on: SF-268
ACHN = tested on: ACHN
OVCAR-3 = tested on: OVCAR-3
MDA-MB-435 = tested on: MDA-MB-435
HCC 2998 = tested on: HCC 2998
TK-10 = tested on: TK-10
SK-OV-3 = tested on: SK-OV-3
RPMI-8226 = tested on: RPMI-8226
Malme-3M = tested on: Malme-3M
HL-60 = tested on: HL-60
IGROV-1 = tested on: IGROV-1
NCI/ADR-RES = tested on: NCI/ADR-RES
MDA-N = tested on: MDA-N
SF-295 = tested on: SF-295
MDA-MB-231 = tested on: MDA-MB-231
DU-145 = tested on: DU-145
KM12 = tested on: KM12
NCI-H460 = tested on: NCI-H460
MCF7 = tested on: MCF7
PC-3 = tested on: PC-3
COLO 205 = tested on: COLO 205
LOX IMVI = tested on: LOX IMVI

SMILES: CCCCCCCCOc1ccc(/C=C/C2=[N+](CCO)CCO2)cc1
- GI50 (RXF 393): 1.8 µM (inactive)
- GI50 (CAKI-1): 7.05 µM (inactive)
- GI50 (SK-MEL-2): 2.3 µM (inactive)
- GI50 (U-251): 2.86 µM (inactive)
- GI50 (SW-620): 2.43 µM (inactive)
- GI50 (SN12C): 3.18 µM (inactive)
- GI50 (OVCAR-8): 3.14 µM (inactive)
- GI50 (A549): 2.7 µM (inactive)
- GI50 (MOLT-4): 3.65 µM (inactive)
- GI50 (EKVX): 3.94 µM (inactive)
- GI50 (HCT-116): 2.7 µM (inactive)
- GI50 (NCI-H23): 2.23 µM (inactive)
- GI50 (A498): 2.9 µM (inactive)
- GI50 (HCT-15): 12.1 µM
- GI50 (786-0): 3.72 µM (inactive)
- GI50 (SR): 2.19 µM (inactive)
- GI50 (UACC-257): 3.38 µM (inactive)
- GI50 (SNB-75): 2.67 µM (inactive)
- GI50 (SK-MEL-28): 4.53 µM (inactive)
- GI50 (M14): 3.8 µM (inactive)
- GI50 (SK-MEL-5): 2.56 µM (inactive)
- GI50 (NCI-H522): 2.02 µM (inactive)
- GI50 (OVCAR-5): 9.42 µM (inactive)
- GI50 (NCI-H226): 3.01 µM (inactive)
- GI50 (SNB-19): 3.83 µM (inactive)
- GI50 (SF-539): 3.12 µM (inactive)
- GI50 (CCRF-CEM): 3.08 µM (inactive)
- GI50 (T47D): 3.35 µM (inactive)
- GI50 (HOP-92): 2.34 µM (inactive)
- GI50 (Hs-578T): 3.53 µM (inactive)
- GI50 (HT-29): 2.4 µM (inactive)
- GI50 (BT-549): 3.44 µM (inactive)
- GI50 (K562): 2.07 µM (inactive)
- GI50 (UO-31): 12.3 µM (inactive)
- GI50 (UACC-62): 4.28 µM (inactive)
- GI50 (HOP-62): 8.63 µM (inactive)
- GI50 (OVCAR-4): 3.6 µM (inactive)
- GI50 (SF-268): 5.27 µM (inactive)
- GI50 (ACHN): 3.69 µM (inactive)
- GI50 (OVCAR-3): 3.15 µM (inactive)
- GI50 (MDA-MB-435): 3.52 µM (inactive)
- GI50 (HCC 2998): 3.47 µM (inactive)
- GI50 (TK-10): 3.36 µM (inactive)
- GI50 (SK-OV-3): 2.54 µM (inactive)
- GI50 (RPMI-8226): 2.2 µM (inactive)
- GI50 (Malme-3M): 3.04 µM (inactive)
- GI50 (HL-60): 2.62 µM (inactive)
- GI50 (IGROV-1): 3.83 µM (inactive)
- GI50 (NCI/ADR-RES): 12.6 µM (inactive)
- GI50 (MDA-N): 3.56 µM (inactive)
- GI50 (SF-295): 3.96 µM (inactive)
- GI50 (MDA-MB-231): 3.78 µM (inactive)
- GI50 (DU-145): 5 µM (inactive)
- GI50 (KM12): 3.27 µM (inactive)
- GI50 (NCI-H460): 3.07 µM (inactive)
- GI50 (MCF7): 4.65 µM (inactive)
- GI50 (PC-3): 2.94 µM (inactive)
- GI50 (COLO 205): 2.42 µM (inactive)

SMILES: CC1=NN(C(=O)CC(=O)Nc2ccc(C)cc2)C(=O)C1/N=N/c1ccc(C(=O)O)cc1 (stereo not drawn)
- GI50 (RXF 393): > 100 µM (inactive)
- GI50 (CAKI-1): > 100 µM (inactive)
- GI50 (SK-MEL-2): > 100 µM (inactive)
- GI50 (U-251): > 100 µM (inactive)
- GI50 (SW-620): > 100 µM (inactive)
- GI50 (SN12C): > 100 µM (inactive)
- GI50 (OVCAR-8): > 100 µM (inactive)
- GI50 (A549): > 100 µM (inactive)
- GI50 (EKVX): > 100 µM (inactive)
- GI50 (HCT-116): > 100 µM (inactive)
- GI50 (NCI-H23): > 100 µM (inactive)
- GI50 (A498): > 100 µM (inactive)
- GI50 (HCT-15): > 100 µM
- GI50 (786-0): > 100 µM (inactive)
- GI50 (SR): 78.5 µM (inactive)
- GI50 (LOX IMVI): 69.3 µM (inactive)
- GI50 (UACC-257): > 100 µM (inactive)
- GI50 (SNB-75): > 100 µM (inactive)
- GI50 (SK-MEL-28): > 100 µM (inactive)
- GI50 (M14): > 100 µM (inactive)
- GI50 (SK-MEL-5): > 100 µM (inactive)
- GI50 (NCI-H522): > 100 µM (inactive)
- GI50 (OVCAR-5): > 100 µM (inactive)
- GI50 (SNB-19): > 100 µM (inactive)
- GI50 (SF-539): > 100 µM (inactive)
- GI50 (CCRF-CEM): > 100 µM (inactive)
- GI50 (T47D): > 100 µM (inactive)
- GI50 (HOP-92): > 100 µM (inactive)
- GI50 (Hs-578T): 85.7 µM (inactive)
- GI50 (HT-29): > 100 µM (inactive)
- GI50 (BT-549): > 100 µM (inactive)
- GI50 (K562): > 100 µM (inactive)
- GI50 (UO-31): 55.8 µM (inactive)
- GI50 (UACC-62): > 100 µM (inactive)
- GI50 (HOP-62): > 100 µM (inactive)
- GI50 (OVCAR-4): > 100 µM (inactive)
- GI50 (SF-268): > 100 µM (inactive)
- GI50 (ACHN): > 100 µM (inactive)
- GI50 (OVCAR-3): > 100 µM (inactive)
- GI50 (MDA-MB-435): > 100 µM (inactive)
- GI50 (HCC 2998): > 100 µM (inactive)
- GI50 (TK-10): > 100 µM (inactive)
- GI50 (RPMI-8226): > 100 µM (inactive)
- GI50 (Malme-3M): > 100 µM (inactive)
- GI50 (HL-60): > 100 µM (inactive)
- GI50 (IGROV-1): > 100 µM (inactive)
- GI50 (NCI/ADR-RES): > 100 µM (inactive)
- GI50 (MDA-N): > 100 µM (inactive)
- GI50 (SF-295): > 100 µM (inactive)
- GI50 (MDA-MB-231): > 100 µM (inactive)
- GI50 (DU-145): > 100 µM (inactive)
- GI50 (KM12): > 100 µM (inactive)
- GI50 (MCF7): > 100 µM (inactive)
- GI50 (PC-3): > 100 µM (inactive)
- GI50 (COLO 205): > 100 µM (inactive)
